Consider 6 molecules from US5696112A, “Fused heterocyclic azepines as vasopressin antagonists” (American Cyanamid Company, priority 1995, dated 1997).

In test [1] the target is T1, Rat Hepatic V1 Receptors (vasopressin V1) (Rattus norvegicus, UniProt P30560).
T1 construct: Rat liver plasma membranes expressing the vasopressin V1 receptor subtypes are isolated by sucrose density gradient; from tissue; host or cells: rat liver plasma membranes
Briefly: Binding Assay to Rat Hepatic V1 Receptors. To be noted: rat hepatic V1, [3H]vasopressin. As to the method:
Binding Assay to Rat Hepatic V1 Receptors
Rat liver plasma membranes expressing the vasopressin V1 receptor subtypes are isolated by sucrose density gradient according to the method described by Lesko et al., (1973). These membranes are quickly suspended in 50.0 mMTris.HCl buffer, pH 7.4, containing 0.2% bovine serum albumin (BSA) and 0.1 mM phenylmethylsulfonylfluoride (PMSF) and kept frozen at -70° C. until used in subsequent binding experiments. For binding experiments, the following is added to the wells of a ninety-six well format microtiter plate: 100 μl of 100.0 mM Tris.HCl buffer containing 10.0 mM MgCl2, 0.2% heat inactivated BSA and a mixture of protease inhibitors: leupeptin, 1.0 mg %; aprotinin, 1.0 mg %, 1,10-phenanthroline,2.0 mg %; trypsin inhibitor, 10.0 mg % and 0.1 mM PMSF, 20.0 μl of [phenylalanyl-3,4,5-^3 H]vasopressin (S.A. 45.1 Ci/mmole) at 0.8 nM, and the reaction initiated by the addition of 80 μl of tissue membranes containing 20 μg of tissue protein. The plates are kept undisturbed on the bench top at room temperature for 120 min. to reach equilibrium. Nonspecific samples are assayed in the presence of 0.1 μM of the unlabeled antagonist phenylalanylvasopressin, added in 20.0 μl volume to a final incubation volume of 200 μl. Upon completion of binding, the content of each well is filtered off, using a Brandel® cell Harvester (Gaithersburg, Md.). The radioactivity trapped on the filter disk by the ligand-receptor complex is assessed by liquid scintillation counting in a Packard LS Counter, with an efficiency of 65% for tritium. The data are analyzed for IC50 values by the LUNDON-2 program for competition (LUNDON SOFTWARE, OH).

The test system of the next test is Vasopressin V2. As to the kind of experiment: Vasopressin V2 Antagonist Activity in Conscious Hydrated Rats. Format: in vivo, rat. Conditions: AVP 0.4 μg/kg i.p. As to the method:
Vasopressin V2 Antagonist Activity in conscious Hydrated Rats Conscious hydrated rats are treated with compounds under study from 0.1 to 100 mg/kg orally or vehicle. Two to four rats are used for each compound. One hour later, arginine vasopressin (AVP, antidiuretic hormone, ADH) dissolved in peanut oil is administered at 0.4 μg/kg intraperitoneally. Two rats in each test would not receive arginine vasopressin but only the vehicle (peanut oil) to serve as water-loading control. Twenty minutes later each rat is given 30 mL/kg of deionized water orally by gavage and is placed individually in a metabolic cage equipped with a funnel and a graduated glass cylinder to collect urine for four hours. Urine volume is measured and osmolality analyzed by use of a Fiske One-Ten osmometer (Fiske Assoc., Norwood, Mass. USA). Urinary sodium, potassium, and chloride are analyzed by use of ion-specific electrodes in a Beckman E3 (Electrolyte 3) Analyzer. In the following results, […] and […] osmolality relative to AVP-control indicates activity.

The test system of another test is Vasopressin V1. Briefly: Vasopressin V1 Antagonist Activity in Conscious Rats (vasopressin vasopressor response). The class given is in vivo, rat. How it is done: Vasopressin V1 Antagonist Activity in Conscious Rats Conscious rats are restrained in a supine position with elastic tape. The area at the base of the tail is locally anesthetization by subcutaneous infiltration with 2% procaine (0.2 ml). Using aseptic technique the ventral caudal tail artery is isolated and a cannula made of PE 10 and 20 (heat-fused) tubing is passed into the lower abdominal aorta. The cannula is secured, heparinized (1000 i.u./cc), sealed and the would closed with one or two stitches of Dexon 4-0. The caudal vein is also cannulated in the same manner for intravenous drug administration. The duration of the surgery is approximately 5 minutes. Additional local anesthesia (2% procaine or lidocaine) is provided as needed. The animals are placed in plastic restraining cages in an upright position. The cannula is attached to a […] pressure transducer and pulsatile blood pressure is recorded. […] Percentage of antagonism by the compound is calculated using the pre-drug vasopressin vasopressor response as 100%.

The target in test [2] is T2, Rat Kidney Medullary V2 Receptors (vasopressin V2) (Rattus norvegicus, UniProt Q00788).
T2 construct: Medullary tissues from rat kidneys are dissected out; from tissue; host or cells: rat kidney medulla membranes
As to the kind of experiment: Binding Assay to Rat Kidney Medullary V2 Receptors. Conditions: rat kidney medullary V2, [3H]Arg8-vasopressin. As to the method: Binding Assay to Rat Kidney Medullary V2 Receptors
Medullary tissues from rat kidneys are dissected out, cut into small pieces and let soak in a […] sodium chloride solution containing 1.0 mM EDTA with many changes of the liquid phase, until the solution is clear of blood. The tissue is homogenized in a 0.25M sucrose solution containing 1.0 mM EDTA and 0.1 mM PMSF using a Potter-Elvehjem homogenizer with a teflon pestle. The homogenate is filtered through several layers (4 layers) of cheese cloth. The filtrate is rehomogenized using a dounce homogenizer, with a tight fitting pestle. The final homogenate is contrifuged at 1500×g for 15 min. The nuclear pellet is discarded and the supernatant fluid recentrifuged at 40,000×g for 30 min. The resulting pellet formed contains a dark inner part with the exterior, slightly pink. The pink outer part is suspended in a small amount of 50.0 mMTris.HCl buffer, pH 7.4. The protein content is determined by the Lowry's method (Lowry et al, J. Biol. Chem., 1953). The membrane suspension is stored at -70° C., in 50.0 mMTris.HCl, containing 0.2% inactivated BSA and 0.1 mM PMSF in aliquots of 1.0 ml containing 10.0 mg protein per ml of suspension until use in subsequent binding experiments.
For binding experiments, the following is added in μl volume to wells of a 96 well format of a microtiter plate: 100.0 μl of 100.0 mM Tris.HCl buffer containing 0.2% heat inactivated BSA, 10.0 mM MgCl2 and a mixture of protease inhibitors: leupeptin, 1.0 mg %; aprotinin, 1.0 mg %; 1,10-phenanthroline, 2.0 mg %; trypsin inhibitor, 10.0 mg % and 0.1 mM PMSF, 20.0 μl of [^3 H]Arginine^8, vasopressin (S.A. 75.0 Ci/mmole) at 0.8 nM and the reaction initiated by the addition of 80.0 μl of tissue membranes (200.0 μg tissue protein). The plates are left undisturbed on the bench top for 120 min. to reach equilibrium. Non-specific binding is assessed in the presence of 1.0 μM of unlabeled ligand, added in 20 μl volume. For test compounds, these are solubilized in 50% dimethylsulfoxide (DMSO) and added in 20.0 μl volume to a final incubation volume of 200 μl. Upon completion of binding, the content of each well is filtered off, using a Brandel® cell Harvester (Gaithersburg, Md.). The radioactivity trapped on the filter disk by the ligand-receptor complex is assessed by liquid scintillation counting in a Packard LS Counter, with an efficiency of 65% for tritium. The data are analyzed for IC50 values by the LUNDON-2 program for competition (LUNDON SOFTWARE, OH).

The target in another test is T3, oxytocin receptors (Rattus norvegicus, UniProt P70536).
T3 construct: The uteri are dissected out, cleaned of fat and connective tissues; from tissue; host or cells: uterus membranes of DES-treated female Sprague-Dawley rats
T3 sequence (P70536 1-388): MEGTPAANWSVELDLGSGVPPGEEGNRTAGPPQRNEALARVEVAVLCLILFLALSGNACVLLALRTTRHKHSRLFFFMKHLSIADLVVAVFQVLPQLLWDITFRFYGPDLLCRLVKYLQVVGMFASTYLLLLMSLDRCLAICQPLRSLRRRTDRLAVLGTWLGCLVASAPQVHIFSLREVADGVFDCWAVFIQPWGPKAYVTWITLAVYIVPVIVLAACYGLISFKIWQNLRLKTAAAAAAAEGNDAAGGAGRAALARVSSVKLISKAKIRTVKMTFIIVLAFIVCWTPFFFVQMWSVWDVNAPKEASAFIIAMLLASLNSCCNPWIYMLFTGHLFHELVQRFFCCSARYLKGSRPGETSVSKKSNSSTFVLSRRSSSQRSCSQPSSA
Briefly: Oxytocin Receptor Binding. Further details: species or system Sprague-Dawley rats. Conditions: for IC50: 1.0 nM [3H]oxytocin. As to the method: Oxytocin Receptor Binding
Female Sprague-Dawley rats weighing approximately 200-250 g are injected intramuscularly (i.m.) with 0.3 mg/kg of body weight of diethylstilbestrol (DES). The rats are sacrificed 18 hours later under pentobarbital anesthesia. The uteri are dissected out, cleaned of fat and connective tissues and rinsed in 50 ml of normal saline. The tissue pooled from six rats is homogenized in 50 ml of 0.01 mMTris.HCl, containing 0.5 mM dithiothreitol and 1.0 mM EDTA, adjusted to pH 7.4, using a polytron at setting 6 with three passes of 10 sec each. The homogenate is passed through two (2) layers of cheesecloth and the filtrate centrifuged at 1000×g for 10 min. The clear supernatant is removed and recentrifuged at 165,000×g for 30 min. The resulting pellet containing the oxytocin receptors is resuspended in 50.0 mM Tris.HCl containing 5.0 mM MgCl2 at pH 7.4, to give a protein concentration of 2.5 mg/ml of tissue suspension. This preparation is used in subsequent binding assays with [^3 H]Oxytocin.
Binding of 3,5-[^3 H]Oxytocin ([^3 H]OT) to its receptors is done in microtiter plates using [^3 H]OT, at various concentrations, in an assay buffer of 50.0 mM Tris.HCl, pH 7.4 and containing 5.0 mM MgCl2, and a mixture of protease inhibitors: BSA, 0.1 mg; aprotinin, 1.0 mg; 1,10-phenanthroline, 2.0 mg; […], 10.0 mg; and PMSF, 0.3 mg per 100 ml of buffer solution. Nonspecific binding is determined in the presence of 1.0 uM unlabeled OT. The binding reaction is terminated after 60 min., at 22° C., by rapid filtration through glass fiber filters using a Brandel® cell harvester (Biomedical Research and Development Laboratories, Inc., Gaithersburg, Md.). Competition experiments are conducted at equilibrium using 1.0 nM [^3 H]OT and varying the concentration of the displacing agents. The concentrations of agent displacing 50% of [^3 H]OT at its sites (IC50) are calculated by a computer assisted LUNDON-2 program (LUNDON SOFTWARE INC., Ohio, USA).

Setting [3] is: Rattus norvegicus, 10 mg/kg iv, read-out: Vasopressin vasopressor response, Max. % Inhibition.

T2 sequence (Q00788 whole entry): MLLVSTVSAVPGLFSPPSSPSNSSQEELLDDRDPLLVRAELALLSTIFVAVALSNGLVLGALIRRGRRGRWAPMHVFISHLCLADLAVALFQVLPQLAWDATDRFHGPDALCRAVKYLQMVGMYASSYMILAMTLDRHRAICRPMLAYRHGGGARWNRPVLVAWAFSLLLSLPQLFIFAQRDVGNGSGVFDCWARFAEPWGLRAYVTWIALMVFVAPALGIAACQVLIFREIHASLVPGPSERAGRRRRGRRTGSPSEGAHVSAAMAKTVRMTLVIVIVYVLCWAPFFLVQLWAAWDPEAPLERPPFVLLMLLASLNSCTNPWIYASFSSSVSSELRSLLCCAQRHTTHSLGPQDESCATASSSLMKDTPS
T1 sequence (P30560 whole entry): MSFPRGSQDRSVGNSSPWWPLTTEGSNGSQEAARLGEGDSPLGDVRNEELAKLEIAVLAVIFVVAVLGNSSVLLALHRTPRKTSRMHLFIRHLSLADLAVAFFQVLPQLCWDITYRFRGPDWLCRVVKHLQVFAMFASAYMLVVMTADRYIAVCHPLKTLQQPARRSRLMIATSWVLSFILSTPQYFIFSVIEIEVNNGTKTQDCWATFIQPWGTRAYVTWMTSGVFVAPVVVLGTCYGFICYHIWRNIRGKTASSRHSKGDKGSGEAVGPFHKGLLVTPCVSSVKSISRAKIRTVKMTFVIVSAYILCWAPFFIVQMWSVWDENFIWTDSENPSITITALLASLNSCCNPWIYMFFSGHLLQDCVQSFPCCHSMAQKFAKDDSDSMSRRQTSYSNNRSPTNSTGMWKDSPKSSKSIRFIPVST

Regarding `O=C(Cc1ccccc1Cl)Nc1ccc(C(=O)N2CCCCc3sccc32)cc1` [Example 2, N-[4-[(5,6,7,8-Tetrahydro-4H-thieno[3,2-b]azepin-4-yl)carbonyl]phenyl]-2-chlorobenzeneacetamide], the IC50 (as a rule, the point on the concentration scale where inhibition reaches its midpoint) in test [1] is 0.0037 µM; in test [2] it was 0.0026 µM. Besides, the “Urine Volume” value in the test with Vasopressin V2 (10 mg/kg P.O.) is listed as 2.8 ml/4 hours. Moreover, the “Time (Min) of Max. % Inhibition” value in the test on Vasopressin V1 (10 mg/kg iv) stood at 60 min. For the same molecule, the inhibition in vivo at 10 mg/kg in the test with Vasopressin V1 (setting [3]) amounted to 7.6%.
With `O=C(Nc1ccc(C(=O)N2CCCCc3sccc32)cc1)c1ccc(Cl)cc1Cl` [Example 14, N-[4-[(5,6,7,8-Tetrahydro-4H-thieno[3,2-b]azepin-4-yl)carbonyl]phenyl]2,4-dichlorobenzamide], the IC50 in test [1] turned out to be 0.12 µM. For the same molecule, in the test on Vasopressin V2 (30 mg/kg P.O.), the Osmolality was 1432 mOsm/kg and the “Urine Volume” value is 3.5 ml/4 hours. Moreover, the “Time (Min) of Max. % Inhibition” value in the test on Vasopressin V1 (20 mg/kg iv) came out at 120 min. Also, the inhibition in vivo at 20 mg/kg in the test on Vasopressin V1 (Rattus norvegicus, 20 mg/kg iv, read-out: Vasopressin vasopressor response, Max. % Inhibition) amounted to 61%. Also, the 50% inhibitory concentration (IC50) in test [2] is 0.03 µM.
`O=C(Nc1ccc(C(=O)N2CCCCc3sccc32)cc1)C1CC=CCC1` (stereo not shown) [Example 15, N-[4-[(5,6,7,8-Tetrahydro-4H-thieno[3,2-b]azepin-4-yl)carbonyl]phenyl]3-cyclohexenecarboxamide] gave an IC50 in test [1] of 0.065 µM. In the test with Vasopressin V2 (30 mg/kg P.O.), the Osmolality is 1397 mOsm/kg and the “Urine Volume” value is 4.6 ml/4 hours. Moreover, the “Time (Min) of Max. % Inhibition” value in the test with Vasopressin V1 (10 mg/kg iv) is 30 min. In the test on Vasopressin V1 (setting [3]), the inhibition in vivo at 10 mg/kg was found to be 69%. In test [2], this molecule returned a 50% inhibitory concentration (IC50) of 0.055 µM.
Turning to `O=C(Cc1ccccc1Cl)Nc1ccc(C(=O)N2CCCCc3sc(Cl)cc32)cc1` [Example 99, N-[4-[(2-Chloro-5,6,7,8-tetrahydro-4H-thieno[3,2-b]azepin-4-yl)carbonyl]phenyl]-2-chlorobenzeneacetamide], the concentration for half-maximal inhibition (IC50) in test [1] was found to be 0.02 µM. In the test with Vasopressin V2 (30 mg/kg P.O.), the Osmolality amounted to 1135 mOsm/kg and the “Urine Volume” value turned out to be 10 ml/4 hours. In the test with Vasopressin V1 (10 mg/kg iv), the “Time (Min) of Max. % Inhibition” value worked out at 90 min. Besides, in the test on Vasopressin V1 (setting [3]), the inhibition in vivo at 10 mg/kg was 58%. Moreover, the IC50 in test [2] turned out to be 0.0033 µM.
Consider `Cc1ccc(F)cc1C(=O)Nc1ccc(C(=O)N2CCCCc3sccc32)cn1` [Example 243, N-[5-[(5,6,7,8-tetrahydro-4H-thieno[3,2-b]azepin-4-yl)carbonyl]-2-pyridinyl]-5-fluoro-2-methylbenzamide], for which the IC50 in test [1] was determined as 0.068 µM; on oxytocin receptors it was 0.34 µM; in test [2] it was 0.0061 µM. The inhibition – broadly, the change of the read-out against control, counted positive when it falls – at 10 µM at oxytocin receptors (10 μM) came to 96%.
On to `O=C(Nc1ccc(C(=O)N2CCCCc3sccc32)cn1)c1ccccc1-c1ccccc1` [Example 252], for which the figures for the IC50 (in test [1]; on oxytocin receptors; in test [2]) were 0.068 µM, 0.17 µM and 0.0061 µM, respectively. The molecule further registered an inhibition at 2.5 µM at oxytocin receptors (2.5 μM) of 93%.
